In patent US20230129485A1, “SYSTEM AND METHOD FOR DETERMINING MATERIAL PROPERTIES OF MOLECULAR SYSTEMS FROM AN AB-INITIO PARAMETERIZED FORCE-FIELD” (InterX, Inc., priority 2021, published 2023):
Where two headings read alike, the source gives them in different places.

Assays:
[1] = Free energy of hydration by COSMO implicit solvent model (MolPro ver. 2012); conditions: absolute error vs Exp (hydration)
Summary of the method: (§1)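 Hydration energies come from continuum solvent models. Those for COSMO were computed with MolPro. SMD and PCM results were received, and the SMD, PCM and COSMO-RS sets each cover just the molecules in common with the QM-parameterized force-field calculations.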

[2] = Table 3; free energy of hydration, experimental; cited from earlier work
[3] = Free energy of hydration by Free Energy Machine Learning Model (FML); conditions: absolute error vs Exp (hydration)
Text: Machine learning models can be used for free energy determination.

[4] = Free energy of hydration predicted with the QM-parameterized force field model (ARROW FF), classical MD and PIMD simulation in a water box; conditions: for water Arrow MD Error / water Arrow PIMD8 Error: Table 3; for water Arrow MD Error: absolute error of MD hydration free energy vs experiment; for water Arrow PIMD8 Error: absolute error of PIMD8 hydration free energy vs experiment; for Arrow PIMD8 Error: absolute error vs Exp (hydration)
Summary of the method: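 Classical and PIMD runs (MTS integrator, MTTK barostat at 1 atm) followed minimization and 50 ps equilibration, with 1 ns NPT production per window. Fifteen unequally spaced lambda windows removed all solute-solvent interactions simultaneously in a 32 Å water box. Hydration free energy computed by Bennett acceptance ratio and thermodynamic integration.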

[5] = implicit solvent model, values received; cited from earlier work
[6] = Free energy of hydration by Polarizable Continuum Model (PCM); conditions: absolute error vs Exp (hydration)
Summary of the method: as §1

[7] = CHEX/H2O partition coefficient (log D) predicted with the QM-parameterized force field model (ARROW FF)
Summary of the method: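 Cyclohexane/water partition coefficients were predicted by molecular simulation with a QM-parameterized force field, with bonded force constants and equilibrium values fitted to MP2/aug-cc-pVTZ energies. Solutes carried neutral functional groups, and results from four independent groups were averaged.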

[8] = implicit solvent model, values received; cited from earlier work; remark: listed apart in the source
[9] = Table 3; free energy of solvation in cyclohexane, experimental; cited from earlier work
[10] = Table 3; CHEX/H2O partition coefficient, experimental; cited from earlier work
[11] = Free energy of hydration by Solvation Model Dielectric (SMD) implicit solvent model; conditions: absolute error vs Exp (hydration)
Summary of the method: as §1

[12] = Free energy of hydration by COSMO-RS
Summary of the method: as §1

[13] = Table 3, absolute error of MD log D vs experiment
[14] = Table 3, absolute error of PIMD log D vs experiment

Row | Structure (SMILES) | COSMO/Molpro Error [1] | water Exp (hydration) [2] | FML error [3] | water Arrow MD Error [4] | water Arrow PIMD8 Error [4] | Arrow PIMD8 Error [4] | SMD free energy of hydration [5] | PCM Error [6] | log D Arrow MD Error [7] | log D Arrow PIMD Error [7] | PCM free energy of hydration [8] | CHEX Exp (solvation) [9] | Exp (log D) [10] | SMD Error [11] | log D Arrow MD Error [7, 13] | log D Arrow PIMD Error [7, 14] | hydration error ([4]; predicted vs experimental free energy of hydration) | COSMO-RS error [12]
1 | CCC(O)CC [3-Pentanol] | 4.23 kJ/mol | -18.2 kJ/mol | 2.43 kJ/mol | 5.69 kJ/mol | 0.628 kJ/mol | 0.628 kJ/mol | – | – | – | – | – | – | – | – | – | – | – | –
2 | CCOC(C)=O [EthylAcetate] | 16.5 kJ/mol | -13.1 kJ/mol | 0.084 kJ/mol | 1.17 kJ/mol | 1.34 kJ/mol | 1.34 kJ/mol | -13 kJ/mol | 2.43 kJ/mol | 0.46 | 0.13 | -15.5 kJ/mol | -14.9 kJ/mol | 0.32 | 0.084 kJ/mol | – | – | – | –
3 | Cc1ccccc1O [o-cresol] | 5.06 kJ/mol | -24.6 kJ/mol | 0.795 kJ/mol | 5.31 kJ/mol | 1.17 kJ/mol | 1.17 kJ/mol | -19.2 kJ/mol | 9.08 kJ/mol | – | – | -15.5 kJ/mol | -25.2 kJ/mol | 0.11 | 5.31 kJ/mol | 0.67 | 0.14 | -4.2 kJ/mol | –
4 | CCC(C)O (stereo not drawn) [2-Butanol] | 4.64 kJ/mol | -19.2 kJ/mol | 2.55 kJ/mol | 5.9 kJ/mol | 0.33 kJ/mol | 0.33 kJ/mol | – | – | – | – | – | – | – | – | – | – | – | 3.22 kJ/mol
5 | CCC(=O)OC [MethylPropionate] | 15.7 kJ/mol | -12.3 kJ/mol | 0.837 kJ/mol | 2.59 kJ/mol | 0.418 kJ/mol | 0.418 kJ/mol | -11.3 kJ/mol | 2.38 kJ/mol | – | – | -14.6 kJ/mol | -15.5 kJ/mol | 0.57 | 0.962 kJ/mol | 0.84 | 0.45 | – | –
6 | CC=O [acetaldehyde] | 16.6 kJ/mol | – | 0.13 kJ/mol | 0.753 kJ/mol | 1.13 kJ/mol | 1.13 kJ/mol | – | 0.837 kJ/mol | – | – | – | – | – | 1.26 kJ/mol | – | – | – | 0.753 kJ/mol
7 | CCCC(C)O (stereo not drawn) [2-Pentanol] | 5.77 kJ/mol | -18.4 kJ/mol | 1.67 kJ/mol | 7.03 kJ/mol | 0.33 kJ/mol | 0.33 kJ/mol | – | – | – | – | – | – | – | – | – | – | – | –
8 | CCCCCO [1-Pentanol] | 9.25 kJ/mol | -18.7 kJ/mol | 1.26 kJ/mol | 4.94 kJ/mol | 0.21 kJ/mol | 0.21 kJ/mol | -16.7 kJ/mol | 4.9 kJ/mol | – | – | -13.8 kJ/mol | – | – | 1.97 kJ/mol | – | – | – | 0.46 kJ/mol
9 | CCCCOC(C)=O [ButylAcetate] | 17.5 kJ/mol | -10.7 kJ/mol | 2.55 kJ/mol | 3.56 kJ/mol | 0.29 kJ/mol | 0.29 kJ/mol | -12.1 kJ/mol | 5.23 kJ/mol | – | – | -15.9 kJ/mol | -20.7 kJ/mol | 1.75 | 1.46 kJ/mol | 0.60 | 0.06 | – | –
10 | C1CCCC1 [Cyctopentane] | – | – | 1.34 kJ/mol | – | – | 0.502 kJ/mol | 5.44 kJ/mol | 5.86 kJ/mol | – | – | -0.837 kJ/mol | – | – | 0.418 kJ/mol | – | – | – | 0.711 kJ/mol
11 | C1CC1 [Cyclopropane] | 8.58 kJ/mol | 3.14 kJ/mol | 3.18 kJ/mol | 1.26 kJ/mol | 1.21 kJ/mol | 1.21 kJ/mol | 0.418 kJ/mol | 5.65 kJ/mol | – | – | -2.51 kJ/mol | – | – | 2.72 kJ/mol | – | – | – | 1.67 kJ/mol
12 | CCCOC(C)=O [PropylAcetate] | 17.2 kJ/mol | -12 kJ/mol | 1 kJ/mol | 2.68 kJ/mol | 0.29 kJ/mol | 0.29 kJ/mol | -12.6 kJ/mol | 3.93 kJ/mol | 0.65 | 0.37 | -15.9 kJ/mol | -18.2 kJ/mol | 1.10 | 0.586 kJ/mol | – | – | – | –
13 | Cc1cccc(O)c1 [m-cresol] | 16.6 kJ/mol | -23 kJ/mol | 3.01 kJ/mol | 8.87 kJ/mol | 4.31 kJ/mol | 4.31 kJ/mol | -20.1 kJ/mol | 6.23 kJ/mol | – | – | -16.7 kJ/mol | -21.8 kJ/mol | −0.21 | 2.89 kJ/mol | 0.65 | 0.09 | – | –
